Results reported in patent US8202998B2, “Salts of benzimidazolyl pyridyl ethers and formulations thereof” (Novartis AG, priority 2006, dated 2012).
≈ marks a conversion by molar mass, not a printed value.

Columns and labels:
[1] = Thermogravimetry / loss on drying; format: physicochemical
[2] = Apparent pKa by pH profile solubility study; format: physicochemical; conditions: determined by a pH profile solubility study
Source text: The apparent pKa of the compound of Formula I refers to the apparent ionization constant of the compound of Formula I as determined by a pH profile solubility study. Thus, the apparent pKa of the compound of Formula I is a complex term consisting of three overlapping ionization constants of the basic nitrogens in Formula I.

[3] = Determination of solubility at 25° C.; format: physicochemical; conditions: for solubility: thermodynamic from solid
Experimental: Excess solids were equilibrated in each solvent for over 24 hours at 25° C.±0.1. Concentration in aqueous supernatant was measured by UV and HPLC and concentrations in organic solvents by gravimetry.

[4] = Aqueous solubility of API as a function of pH (shake flask method); format: physicochemical; conditions: for solubility at 5 days: aqueous HCl or NaOH solution, ionic strength 0.15 (KCl), thermodynamic from solid, room temperature
Experimental: The aqueous solubility of the compound of Formula I was assessed as a function of pH. Solubility of the compound of Formula I was determined using the shake flask method. The following aqueous solutions of hydrochloric acid (HCl) were prepared: 100, 33.3, 11.1, 3.7, 1.2, 0.4, and 0 mM. The following aqueous solutions of sodium hydroxide (NaOH) were prepared: 1.2 and 0.4 mM. The ionic strength of each of these solutions was adjusted to 0.15 using potassium chloride. Excess amounts of the compound of Formula I were added to a 1 mL aliquot of each of the above solutions in 1.5-mL polypropylene tubes. The tubes were agitated at room temperature for 5 days before analysis. On the day of analysis, the tubes were centrifuged at 15,000 revolutions per minute (rpm) using a microcentrifuge at 22° C. for 20 minutes. The concentration of compound of Formula I in the supernatant was measured by HPLC. The pH of the supernatant was measured using an Orion pH meter, which was calibrated before use.

[5] = Polymorphism behavior: crystal modification after 24 hours equilibration; format: physicochemical
Experimental: A suspension of 6 mg of drug substance in 300 μl of solvent is prepared. Samples are agitated for ≧24 hour at 22° C.±2° C. The solids are collected and investigated for changes.

[6] = Effect of grinding on morphic properties; format: physicochemical
[7] = Bioavailability study of API and salts of API in dogs; format: in vivo, beagle dogs; conditions: single 100 mg oral dose
Experimental: For comparison, a microemulsion of the free base was also studied. The study was performed with 4 dogs, weighing 9-15 kg each. A crossover design with a washout period of at least 1 week was used. The dogs were given a single oral dose of 100 mg of test compound, administered under fasting conditions.

[8] = Hygroscopicity (sorption/desorption); format: physicochemical
Experimental: Sorption/desorption isotherms were measured using VTI vapor sorption device (DVS-1). Measurements were carried out at 25° C.

[9] = Aqueous solubility of salts in deionized water
[10] = pH of 1% solution or suspension; format: physicochemical; conditions: In water
[11] = Stability: degradation products (DP) and appearance (color) under stress conditions; format: physicochemical; parameters: key to CL: A: No change of color; B: Slight discoloration; C: Medium discoloration; D: Strong discoloration; ↓: Suspension; *: Clear solution after stress test; —: no change; x: test not performed
Experimental: Column: Symmetry C18 (Waters), 3.5 μm, 3×150 mm
Mobile phase: A=0.1% TFA in water; B=acetonitrile
Gradient: 20 to 100% B in 10 minutes
Column temperature: 40° C.
Stability of the three salts with respect to color and degradation products were assessed under various conditions.

[12] = Intrinsic dissolution rate; format: physicochemical; conditions: 37° C.
Experimental: The intrinsic dissolution rate measurements were carried out in 0.5 cm^2 VanKel die assemblies and a pellet pressure of 1 ton. The dissolution was measured using a Cary 50 spectrophotometer with a stirring rate of 200 rpm. The solution medium was held at 37° C. and measurements were made at 276 nm.

[13] = beagle, dog, plasma, fasting, mean and sd
[14] = deionized water, water, thermodynamic from solid
[15] = 0.1% solutions or suspensions, 1 week 80° C. or 50° C., Methanol
[16] = 0.1% solutions or suspensions, 1 week 80° C. or 50° C., Water
[17] = 0.1% solutions or suspensions, 1 week 80° C. or 50° C., pH 1
[18] = 0.1% solutions or suspensions, 1 week 80° C. or 50° C., pH 3
[19] = 0.1% solutions or suspensions, 1 week 80° C. or 50° C., pH 5
[20] = 0.1% solutions or suspensions, 1 week 80° C. or 50° C., pH 7
[21] = 0.1% solutions or suspensions, 1 week 80° C. or 50° C., pH 9
[22] = 0.1% solutions or suspensions, 1 week 80° C. or 50° C., pH 11
[23] = 1-2 weeks 50° C., tight container, 1% in mixture 1
[24] = 1-2 weeks 50° C., tight container, 1% in mixture 2
[25] = 1-2 weeks 50° C./75% r.h., 1% in mixture 1
[26] = 1-2 weeks 50° C./75% r.h., 1% in mixture 2
[27] = Solid stage, 1 week 80° C., tight container, Bulk (HPLC)
[28] = Xenon light (approx. 1200 kLuxh), Bulk (HPLC)

Loss on drying by TG ([1]; As is): 3.3%
Thermogravimetry (weight loss in %) ([1]; Heating rate 20 K/min): 3.3%
pKa [2]: ~4.7
solubility ([3]; 0.1N HCl, 25 °C, simulated gastric fluid, read-out: Solubility (approx. at 25° C.) (HPLC)): 200 µg/mL (≈ 386 µM)
solubility ([3]; acetonitrile, 25 °C, organic solvent or mixture, read-out: Solubility (approx. at 25° C.)): 5200 µg/mL (≈ 10000 µM)
solubility ([3]; aqueous medium at pH 3, 25 °C, pH 3, aqueous buffer, read-out: Solubility (approx. at 25° C.) (HPLC)): 0.06 µg/mL (≈ 0.116 µM)
solubility ([3]; aqueous medium at pH 4.5, 25 °C, pH 4.5, aqueous buffer, read-out: Solubility (approx. at 25° C.) (HPLC)): 0.09 µg/mL (≈ 0.174 µM)
Solid ([3]; line after Water under Solubility): No change
solubility ([3]; methanol, 25 °C, organic solvent or mixture, read-out: Solubility (approx. at 25° C.)): 11400 µg/mL (≈ 22000 µM)
Aqueous solubility (in words) ([3]; summary of Table 8): nearly insoluble in water
solubility ([3]; water, 25 °C, water, read-out: Solubility (approx. at 25° C.) (HPLC)): 24 µg/mL (≈ 46.3 µM)
Aqueous solubility (in words) ([4]; Water): practically insoluble in water
solubility at 5 days ([4]; aqueous buffer, pH 2.19): 125 µg/mL (≈ 242 µM)
solubility at 5 days ([4]; aqueous buffer, pH 3.75): 1.9 µg/mL (≈ 3.66 µM)
solubility at 5 days ([4]; aqueous buffer, pH 5.78): 0.4 µg/mL (≈ 0.772 µM)
solubility at 5 days ([4]; aqueous buffer, pH 10.13): 0.3 µg/mL (≈ 0.579 µM)
solubility at 5 days ([4]; aqueous buffer, pH 11.00): 0.3 µg/mL (≈ 0.579 µM)
solubility at 5 days ([4]; simulated gastric fluid, pH 1.36): 709 µg/mL (≈ 1370 µM)
Crystal modification after 24 hours equilibration (DSC/XRPD/TG) ([5]; 2-propanol): No change
Crystal modification after 24 hours equilibration (DSC/XRPD/TG) ([5]; Acetone): No change
Crystal modification after 24 hours equilibration (DSC/XRPD/TG) ([5]; Acetonitrile): Change
Crystal modification after 24 hours equilibration (DSC/XRPD/TG) ([5]; Ethanol): No change
Crystal modification after 24 hours equilibration (DSC/XRPD/TG) ([5]; Ethyl acetate): No change
Crystal modification after 24 hours equilibration (DSC/XRPD/TG) ([5]; Methanol): No change
Crystal modification after 24 hours equilibration (DSC/XRPD/TG) ([5]; PEG400): No change
Crystal modification after 24 hours equilibration (DSC/XRPD/TG) ([5]; Water): Change
Effect of grinding [6]: No change
AUC(0-inf) [7, 13]: 5310 ± 4510 ng·h/mL
Cmax [7, 13]: 62.9 ± 74.4 ng/mL
Tmax ([7]; beagle, dog, plasma, fasting, median): 16 h
Tlag ([7]; fasting, median): 1.0 h
Absolute F ([7]; relative to an iv dose of 1.25 mg/kg): 2.32 ± 1.97
Hygroscopicity from moisture sorption profiles (in words) [8]: non-hygroscopic
Hygroscopicity: After 1 day at 80% r.h. ([8]; 80% r.h., 1 day, 25° C.): 0
Hygroscopicity: After 1 day at 95% r.h. ([8]; 95% r.h., 1 day, 25° C.): 0.1
solubility [9, 14]: 9 µg/mL
solubility at 48 h [9, 14]: 4 µg/mL
pH ([9]; pH of the saturated aqueous solutions): 5.235
pH of 1% solution or suspension [10]: 5.5
CL [11, 15]: A
DP [11, 15]: 0.6%
CL [11, 16]: A↓
DP [11, 16]: 0.6%
CL [11, 17]: A
DP [11, 17]: 1.4%
CL [11, 18]: A↓
DP [11, 18]: 0.9%
CL [11, 19]: A↓
DP [11, 19]: 0.6%
CL [11, 20]: A↓
DP [11, 20]: 0.9%
CL [11, 21]: A↓
DP [11, 21]: 27.0%
CL [11, 22]: A↓
DP [11, 22]: >99%
CL [11, 23]: A
DP [11, 23]: 0.7%
CL [11, 24]: A
DP [11, 24]: 0.6%
CL [11, 25]: A
DP [11, 25]: 0.8%
CL [11, 26]: A
DP [11, 26]: 0.5%
Stability in methanol (in words) ([11]; In methanol): stable
CL [11, 27]: A
DP [11, 27]: 0.6%
DP ([11]; Solid state, 1 week 80° C./175% r.h, Bulk (HPLC)): 0.6%
CL ([11]; Solid state, 1 week 80° C./, Bulk (HPLC)): A
DP ([11]; Unstressed): 0.6%
CL [11, 28]: A
DP [11, 28]: 0.6%
optimum pH for aqueous stability ([11]; aqueous): 5
Aqueous stability at higher pH (in words) ([11]; higher pH (9 and 11)): decomposes
Intrinsic dissolution rate ([12]; HCl 0.1N): 0 mg min^−1 cm^−2
Intrinsic dissolution rate ([12]; Water): 0 mg min^−1 cm^−2
Structure (SMILES): Cn1c(Nc2ccc(C(F)(F)F)cc2)nc2cc(Oc3ccnc(-c4ncc(C(F)(F)F)[nH]4)c3)ccc21 [API, {1-methyl-5-[2-(5-trifluoromethyl-1H-imidazol-2-yl)-pyridin-4-yloxy]-1H-benzoimidazol-2-yl}-(4-trifluoromethyl-phenyl)amine]
